Where a SMILES comes first, the peptide text is derived from it.
How the values were obtained:
[1] = Stability in aqueous solution (PBS), peptide remaining in solution by HPLC; assay type: physicochemical; details: phosphate-buffered saline (PBS), 10 mg/ml in PBS, about pH 7.3 to 7.5, 37° C., read-out: peptide remaining detectable in solution at 1 week
[2] = tested on: virus isolates (IIIB, 030, 060 and 098); experiment: In vitro resistance selection, geometric mean over isolates; assay type: cell-based, HIV; details: compared to SEQ ID NO:2
Description: Biological properties of the HIV fusion inhibitor peptides provided herein have been compared with other recognized, effective antiviral agents, including SEQ ID NO: 2 (enfuvirtide). In particular, in vitro resistance comparison studies were performed between the novel SEQ ID NO:9 compound of interest and established antiviral agent SEQ ID NO:2, described in detail as follows: MT2 cells were infected with virus isolates (IIIB, 030, 060 and 098) and cultured in increasing concentrations of SEQ ID NO:2 (enfuvirtide) or SEQ ID NO:9 to select for resistance. The initial peptide concentration was approximately 2 times the IC50 of each peptide against the corresponding wild type isolate. Peptide concentrations were maintained by adding fresh peptide every 1-3 days. Cultures were monitored for cytopathic effect (CPE) using standard techniques and when maximal CPE was achieved, a small aliquot of virus was used for subsequent rounds of infection. Peptide concentrations were increased 2 to 4-fold depending on the length of time in culture when compared to the growth rate of wild type virus. During the course of selection, peptide-free virus stocks were also collected. Peptide-free virus stocks were characterized for gp41 genotypic changes by dideoxy sequencing chemistries and phenotypic susceptibility was determined using a cMAGI infectivity assay.

[3] = Intravenous pharmacokinetics in cynomolgus monkeys; assay type: in vivo, cynomolgus monkeys (Macaca fasicularis); details: relative to base sequence SEQ ID NO:5
Description: For determining pharmacokinetic properties, an HIV fusion inhibitor peptide or a base sequence from which an HIV fusion inhibitor peptide is derived was dosed intravenously in cynomolgus monkeys (Macaca fasicularis) (other animal models may be used for determining pharmacokinetic properties, as known in the art). At various times post-dose, blood samples were drawn and plasma isolated by centrifugation. Plasma samples were stored frozen until analysis by LC-MS (liquid chromatography/mass spectrometry) in the electrospray, positive-ion mode. An HIV fusion inhibitor or base sequence was eluted from a C18 or C8 HPLC column with a gradient of acetonitrile in a buffer of 10 mM ammonium acetate, pH 6.8. At the time of analysis, plasma samples were deproteinated with either two or three volumes of acetonitrile containing 0.5% formic acid. Duplicate calibration standards in cynomolgus plasma samples were prepared at the same time as the samples and analyzed before and after the samples containing either HIV fusion inhibitor peptide or base sequence. Pharmacokinetic properties were calculated from the plasma concentration-time data using either mono-exponential or bi-exponential mathematical models. Models were derived by non-linear least squares optimization. A 1/C^2 weighting of concentrations was used. […]

HIV-Res = experiment: Magi-CCR5 infectivity assay, resistant viral isolate; assay type: cell-based, HIV-1; details: compared to SEQ ID NO:6 / 7
Text: Assessment of biological properties included measurement of antiviral activity against HIV-1 strains. In determining antiviral activity (e.g., one measure being the ability to inhibit transmission of HIV to a target cell) of the HIV fusion inhibitor peptides, an in vitro assay which has been shown, by data generated using peptides derived from the HR regions of HIV gp41, to be predictive of antiviral activity observed in vivo was used. […] These assays score for reduction of infectious virus titer employing the indicator cell lines MAGI or the CCR5 expressing derivative cMAGI. Both cell lines exploit the ability of HIV-1 tat to transactivate the expression of a β-galactosidase reporter gene driven by the HIV-LTR. The β-gal reporter has been modified to localize in the nucleus and can be detected with the X-gal substrate as intense nuclear staining within a few days of infection. […] The number of infected cells for each control and peptide dilution was determined with the CCD-imager, and then the IC50 was calculated (expressed in μg/ml).
Viruses resistant to the antiviral activity of a peptide consisting of a base sequence can be produced using standard laboratory methods. […] The cultures are maintained and monitored until syncytia are present. […] The second round of culture is maintained and monitored for presence of virus resistant to the antiviral activity of the peptide. […]

SMILES	remaining at 168 h, 10 mg/ml [1] [%]	barrier to development of resistance in vitro [2]	biological half-life, in words [3]	resistance profile (activity against the resistant viral isolate Res) (HIV-Res)
CC[C@H](C)[C@H](NC(=O)[C@H](C)NC(=O)[C@H](CCCNC(=N)N)NC(=O)[C@H](CC(=O)O)NC(=O)[C@H](Cc1c[nH]c2ccccc12)NC(=O)[C@H](C)NC(=O)[C@H](CCC(=O)O)NC(=O)[C@H](Cc1c[nH]c2ccccc12)NC(=O)[C@@H](NC(=O)[C@@H](NC(C)=O)[C@@H](C)O)[C@@H](C)O)C(=O)N[C@@H](C)C(=O)N[C@@H](CCC(=O)O)C(=O)N[C@@H](Cc1ccc(O)cc1)C(=O)N[C@@H](C)C(=O)N[C@@H](C)C(=O)N[C@@H](CCCNC(=N)N)C(=O)N[C@H](C(=O)N[C@@H](CCC(=O)O)C(=O)N[C@@H](C)C(=O)N[C@@H](CC(C)C)C(=O)N[C@@H](CC(C)C)C(=O)N[C@@H](CCCNC(=N)N)C(=O)N[C@@H](C)C(=O)N[C@@H](CC(C)C)C(=O)N[C@@H](CCC(N)=O)C(=O)N[C@@H](CCC(=O)O)C(=O)N[C@@H](CCC(N)=O)C(=O)N[C@@H](CCC(N)=O)C(=O)N[C@@H](CCC(=O)O)C(=O)N[C@@H](CCCCN)C(=O)N[C@@H](CC(N)=O)C(=O)N[C@@H](CCC(=O)O)C(=O)N[C@@H](C)C(=O)N[C@@H](C)C(=O)N[C@@H](CC(C)C)C(=O)N[C@@H](CCCNC(=N)N)C(=O)N[C@@H](CCC(=O)O)C(=O)N[C@@H](CC(C)C)C(N)=O)[C@@H](C)CC [compound 9] (Ac-TTWEAWDRAIAEYAARIEALLRALQEQQEKNEAALREL-NH2)	≥ 90	higher barrier to development of resistance	increased biological half-life	good resistance profile
CC[C@H](C)[C@H](NC(=O)[C@H](C)NC(=O)[C@H](CCCNC(=N)N)NC(=O)[C@H](CC(=O)O)NC(=O)[C@H](Cc1c[nH]c2ccccc12)NC(=O)[C@H](C)NC(=O)[C@H](CCC(=O)O)NC(=O)[C@H](Cc1c[nH]c2ccccc12)NC(=O)[C@@H](NC(=O)[C@@H](NC(C)=O)[C@@H](C)O)[C@@H](C)O)C(=O)N[C@@H](C)C(=O)N[C@@H](CCC(=O)O)C(=O)N[C@@H](Cc1ccc(O)cc1)C(=O)N[C@@H](C)C(=O)N[C@@H](C)C(=O)N[C@@H](CCCNC(=N)N)C(=O)N[C@H](C(=O)N[C@@H](CCC(=O)O)C(=O)N[C@@H](C)C(=O)N[C@@H](CC(C)C)C(=O)N[C@@H](CC(C)C)C(=O)N[C@@H](CCCNC(=N)N)C(=O)N[C@@H](C)C(=O)N[C@@H](C)C(=O)N[C@@H](CCC(N)=O)C(=O)N[C@@H](CCC(=O)O)C(=O)N[C@@H](CCC(N)=O)C(=O)N[C@@H](CCC(N)=O)C(=O)N[C@@H](CCC(=O)O)C(=O)N[C@@H](CCCCN)C(=O)N[C@@H](CC(C)C)C(=O)N[C@@H](CCC(=O)O)C(=O)N[C@@H](C)C(=O)N[C@@H](C)C(=O)N[C@@H](CC(C)C)C(=O)N[C@@H](CCCNC(=N)N)C(=O)N[C@@H](CCC(=O)O)C(=O)N[C@@H](CC(C)C)C(N)=O)[C@@H](C)CC [compound 10] (Ac-TTWEAWDRAIAEYAARIEALLRAAQEQQEKLEAALREL-NH2)	–	–	increased biological half-life	good resistance profile

— patent US20100261876A1, “NOVEL METHODS OF […] FOR T[…] PEPTIDES” (priority 2007, published 2010)
